In patent US9273057B2 (Bristol-Myers Squibb Company, priority 2012, dated 2016):

What follows are compounds tested against CK2A1 (CK2α/β) (Homo sapiens, UniProt P68400) (assay: CK2 kinase assay, CK2A1 (CK2α/β)). Settings: Table A; read-out: CK2A1 (CK2α/β) (IC50).
Format: biochemical

Chain of CK2A1 (CK2α/β) (P68400 whole entry, species assumed): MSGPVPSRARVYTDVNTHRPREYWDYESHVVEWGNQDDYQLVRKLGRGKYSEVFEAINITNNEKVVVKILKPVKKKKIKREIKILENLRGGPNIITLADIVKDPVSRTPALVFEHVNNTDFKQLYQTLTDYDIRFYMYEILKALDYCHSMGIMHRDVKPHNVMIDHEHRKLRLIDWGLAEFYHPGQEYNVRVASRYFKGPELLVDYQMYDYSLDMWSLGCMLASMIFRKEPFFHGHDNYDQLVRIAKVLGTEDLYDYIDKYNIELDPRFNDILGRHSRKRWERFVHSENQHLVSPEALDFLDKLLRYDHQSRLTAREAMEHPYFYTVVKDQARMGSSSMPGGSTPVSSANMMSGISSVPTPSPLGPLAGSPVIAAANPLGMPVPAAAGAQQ
Chain of CK2A1 (CK2α/β) (P67870 whole entry partner, species assumed): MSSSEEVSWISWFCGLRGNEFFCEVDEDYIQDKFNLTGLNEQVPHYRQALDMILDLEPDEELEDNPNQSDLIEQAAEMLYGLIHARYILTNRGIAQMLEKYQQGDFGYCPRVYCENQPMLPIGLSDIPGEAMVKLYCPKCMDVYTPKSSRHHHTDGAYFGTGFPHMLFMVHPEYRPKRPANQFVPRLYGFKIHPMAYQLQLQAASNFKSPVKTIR

Row | IC50 | Structure (SMILES)
1 | 3.08 nM | C[C@@H](O)CN1CC(N2CCN(c3cc(C#N)cc(Nc4nc(NC5CC5)c5ncc(C#N)n5n4)c3Cl)CC2)C1 [Example 588, 2-{[2-chloro-5-cyano-3-(4-{1-[(2R)-2-hydroxypropyl]azetidin-3-yl}piperazin-1-yl)phenyl]amino}-4-(cyclopropylamino)imidazo [2,1-f][1,2,4]triazine-7-carbonitrile]
2 | 7.56 nM | N#Cc1cc(Nc2nc(NC3CC3)c3ncc(C#N)n3n2)c(Cl)c(N2CCN([C@H]3CCC[C@@H]3O)CC2)c1 [Example 589, 2-[(2-chloro-5-cyano-3-{4-[(1S,2S)-2-hydroxycyclopentyl]piperazin-1-yl}phenyl)amino]-4-(cyclopropylamino)imidazo [2,1-f][1,2,4]triazine-7-carbonitrile]
3 | 1.83 nM | N#Cc1cc(Nc2nc(NC3CC3)c3ncc(C#N)n3n2)c(Cl)c(N2CCN(CCO)CC2)c1 [Example 590, 2-({2-chloro-5-cyano-3-[4-(2-hydroxyethyl)piperazin-1-yl]phenyl}amino)-4-(cyclopropylamino)imidazo [2,1-f][1,2,4]triazine-7-carbonitrile]
4 | 3.82 nM | COC(=O)N1CCC(N2CCN(c3cc(C#N)cc(Nc4nc(NC5CC5)c5ncc(C#N)n5n4)c3Cl)CC2)C1 (stereo not shown) [Example 591, methyl 3-[4-(2-chloro-5-cyano-3-{[7-cyano-4-(cyclopropylamino)imidazo [2,1-f][1,2,4]triazine-2-yl]amino}phenyl)piperazin-1-yl]pyrrolidine-1-carboxylate]
5 | 0.44 nM | CN1CC(OC(=O)N2CCN(c3cc(C#N)cc(Nc4nc(NC5CC5)c5ncc(C#N)n5n4)c3Cl)CC2)C1 [Example 592, 1-methylazetidin-3-yl 4-(2-chloro-5-cyano-3-{[7-cyano-4-(cyclopropylamino)imidazo [2,1-f][1,2,4]triazin-2-yl]amino}phenyl) piperazine-1-carboxylate]
6 | 1.35 nM | N#Cc1cc(Nc2nc(NC3CC3)c3ncc(C#N)n3n2)c(Cl)c(N2CCN(C3CC3)CC2)c1 [Example 593, 2-{[2-chloro-5-cyano-3-(4-cyclopropylpiperazin-1-yl)phenyl]amino}-4-(cyclopropylamino)imidazo [2,1-f][1,2,4]triazine-7-carbonitrile]
7 | 1.44 nM | N#Cc1cc(Nc2nc(NC3CC3)c3ncc(C#N)n3n2)c(Cl)c(N2CCN(CCC(F)F)CC2)c1 [Example 595, 2-({2-chloro-5-cyano-3-[4-(3,3-difluoropropyl)piperazin-1-yl]phenyl}amino)-4-(cyclopropylamino)imidazo [2,1-f][1,2,4]triazine-7-carbonitrile]
8 | 0.6 nM | COC(C)CN1CCN(c2cc(C#N)cc(Nc3nc(NC4CC4)c4ncc(C#N)n4n3)c2Cl)CC1 (stereo not shown) [Example 596, 2-({2-chloro-5-cyano-3-[4-(2-methoxypropyl)piperazin-1-yl]phenyl}amino)-4-(cyclopropylamino)imidazo [2,1-f][1,2,4]triazine-7-carbonitrile]
9 | 0.62 nM | N#Cc1cc(Nc2nc(NC3CC3)c3ncc(C#N)n3n2)c(Cl)c(N2CCN(CC3CNCCO3)CC2)c1 (stereo not shown) [Example 597, 2-({2-chloro-5-cyano-3-[4-(morpholin-2-ylmethyl)piperazin-1-yl]phenyl}amino)-4-(cyclopropylamino)imidazo [2,1-f][1,2,4]triazine-7-carbonitrile]
10 | 0.51 nM | N#Cc1cc(Nc2nc(NC3CC3)c3ncc(C#N)n3n2)c(Cl)c(N2CCN(CC3COCCN3)CC2)c1 (stereo not shown) [Example 598, 2-({2-chloro-5-cyano-3-[4-(morpholin-3-ylmethyl)piperazin-1-yl]phenyl}amino)-4-(cyclopropylamino)imidazo [2,1-f][1,2,4]triazine-7-carbonitrile]
11 | 0.4 nM | N#Cc1cc(Nc2nc(NC3CC3)c3ncc(C#N)n3n2)c(Cl)c(N2CCN(CC(=O)NS(=O)(=O)C3CC3)CC2)c1 [Example 599, 2-[4-(2-chloro-5-cyano-3-{[7-cyano-4-(cyclopropylamino)imidazo [2,1-f][1,2,4]triazin-2-yl]amino}phenyl)piperazin-1-yl]-N-(cyclopropanesulfonyl) acetamide]
12 | 0.53 nM | N#Cc1cc(Nc2nc(NC3CC3)c3ncc(C#N)n3n2)c(Cl)c(N2CCN(CC(N)=O)CC2)c1 [Example 600, 2-[4-(2-chloro-5-cyano-3-{[7-cyano-4-(cyclopropylamino)imidazo[2,1-f][1,2,4]triazin-2-yl]amino}phenyl)piperazin-1-yl]acetamide]
13 | 1.41 nM | N#Cc1cc(Nc2nc(NC3CC3)c3ncc(C#N)n3n2)c(Cl)c(N2CCN([C@H]3C[C@H](F)C3)CC2)c1 [Example 601, 2-[(2-chloro-5-cyano-3-{4-[(1r,3r)-3-fluorocyclobutyl]piperazin-1-yl}phenyl)amino]-4-(cyclopropylamino)imidazo [2,1-f][1,2,4]triazine-7-carbonitrile]
14 | 4.34 nM | COC[C@@H](O)CN1CCN(c2cc(C#N)cc(Nc3nc(NC4CC4)c4ncc(C#N)n4n3)c2Cl)CC1 [Example 602, 2-[(2-chloro-5-cyano-3-{4-[(2S)-2-hydroxy-3-methoxypropyl]piperazin-1-yl}phenyl)amino]-4-(cyclopropylamino)imidazo [2,1-f][1,2,4]triazine-7-carbonitrile]
15 | 2.85 nM | CCNc1nc(Nc2cc(C#N)cc(N3CCN(CC4(C)COC4)CC3)c2Cl)nn2c(C#N)cnc12 [Example 603, 2-[(2-chloro-5-cyano-3-{4-[(3-methyloxetan-3-yl)methyl]piperazin-1-yl}phenyl)amino]-4-(ethylamino)imidazo[2,1-f] [1,2,4]triazine-7-carbonitrile]
16 | 0.99 nM | CCNc1nc(Nc2cc(C#N)cc(N3CCN(CC(C)(CO)CO)CC3)c2Cl)nn2c(C#N)cnc12 [Example 604, 2-[(2-chloro-5-cyano-3-{4-[3-hydroxy-2-(hydroxymethyl)-2-methylpropyl]piperazin-1-yl}phenyl)amino]-4-(ethylamino)imidazo[2,1-f][1,2,4]triazine-7-carbonitrile]
17 | 0.91 nM | CCNc1nc(Nc2cc(C#N)cc(N3CCN(C4CN(C(C)=O)C4)CC3)c2Cl)nn2c(C#N)cnc12 [Example 605, 2-({3-[4-(1-acetylazetidin-3-yl)piperazin-1-yl]-2-chloro-5-cyanophenyl}amino)-4-(ethylamino)imidazo[2,1-f][1,2,4]triazine-7-carbonitrile]
18 | 0.72 nM | COC[C@H](O)CN1CCN(c2cc(C#N)cc(Nc3nc(NC4CC4)c4ncc(C#N)n4n3)c2Cl)CC1 [Example 606, 2-[(2-chloro-5-cyano-3-{4-[(2R)-2-hydroxy-3-methoxypropyl]piperazin-1-yl}phenyl)amino]-4-(cyclopropylamino)imidazo [2,1-f][1,2,4]triazine-7-carbonitrile]
19 | 0.56 nM | CS(=O)(=O)NC(=O)CN1CCN(c2cc(C#N)cc(Nc3nc(NC4CC4)c4ncc(C#N)n4n3)c2Cl)CC1 [Example 607, 2-[4-(2-chloro-5-cyano-3-{[7-cyano-4-(cyclopropylamino)imidazo [2,1-f][1,2,4]triazin-2-yl]amino}phenyl)piperazin-1-yl]-N-methanesulfonamide-acetamide]
20 | 1.48 nM | CC(CO)N1CC(N2CCN(c3cc(C#N)cc(Nc4nc(NC5CC5)c5ncc(C#N)n5n4)c3Cl)CC2)C1 (stereo not shown) [Example 608, 2-[(2-chloro-5-cyano-3-{4-[1-(1-hydroxypropan-2-yl)azetidin-3-yl]piperazin-1-yl}phenyl)amino]-4-(cyclopropylamino)imidazo [2,1-f][1,2,4]triazine-7-carbonitrile]
21 | 1.39 nM | N#Cc1cc(Nc2nc(NC3CC3)c3ncc(C#N)n3n2)c(Cl)c(N2CCN(CC3CCCCO3)CC2)c1 (stereo not shown) [Example 609, 2-({2-chloro-5-cyano-3-[4-(oxan-2-ylmethyl)piperazin-1-yl]phenyl}amino)-4-(cyclopropylamino)imidazo [2,1-f][1,2,4]triazine-7-carbonitrile]
22 | 1.08 nM | CCNc1nc(Nc2cc(C#N)cc(N3CCN([C@H]4C[C@@H](O)C4)CC3)c2Cl)nn2c(C#N)cnc12 [Example 610, 2-[(2-chloro-5-cyano-3-{4-[(1a,3s)-3-hydroxycyclobutyl]piperazin-1-yl}phenyl)amino]-4-(ethylamino)imidazo[2,1-f][1,2,4]triazine-7-carbonitrile]
23 | 0.65 nM | CNC(=O)CN1CCN(c2cc(C#N)cc(Nc3nc(NC4CC4)c4ncc(C#N)n4n3)c2Cl)CC1 [Example 611, 2-[4-(2-chloro-5-cyano-3-{[7-cyano-4-(cyclopropylamino)imidazo [2,1-f][1,2,4]triazin-2-yl]amino}phenyl)piperazin-1-yl]-N-methylacetamide]
24 | 0.43 nM | N#Cc1cc(Nc2nc(NC3CC3)c3ncc(C#N)n3n2)c(Cl)c(N2CCN(C3CNC3)CC2)c1 [Example 612, 2-({3-[4-(azetidin-3-yl)piperazin-1-yl]-2-chloro-5-cyanophenyl}amino)-4-(cyclopropylamino)imidazo [2,1-f][1,2,4]triazine-7-carbonitrile]
25 | 1.62 nM | CCNc1nc(Nc2cc(C#N)cc(N3CCN([C@H]4C[C@H](O)C4)CC3)c2Cl)nn2c(C#N)cnc12 [Example 613, 2-[(2-chloro-5-cyano-3-{4-[(1r,3r)-3-hydroxycyclobutyl]piperazin-1-yl}phenyl)amino]-4-(ethylamino)imidazo [2,1-f][1,2,4]triazine-7-carbonitrile]
26 | 2.5 nM | N#Cc1cc(Nc2nc(NC3CC3)c3ncc(C#N)n3n2)c(Cl)c(N2CCN(C3CN(CC(O)CF)C3)CC2)c1 (stereo not shown) [Example 614, 2-[(2-chloro-5-cyano-3-{4-[1-(3-fluoro-2-hydroxypropyl)azetidin-3-yl]piperazin-1-yl}phenyl)amino]-4-(cyclopropylamino)imidazo [2,1-f][1,2,4]triazine-7-carbonitrile]
27 | 0.18 nM | N#Cc1cc(NCCO)c(Cl)c(Nc2nc(NC3CC3)c3ncc(C#N)n3n2)c1 [Example 615, 2-((2-chloro-5-cyano-3-((2-hydroxyethyl)amino)phenyl)amino)-4-(cyclopropylamino)imidazo[2,1-f][1,2,4]triazine-7-carbonitrile]
28 | 0.86 nM | COCCOCCNc1cc(C#N)cc(Nc2nc(NC3CC3)c3ncc(C#N)n3n2)c1Cl [Example 616, 2-((2-chloro-5-cyano-3-((2-(2-methoxyethoxy)ethyl)amino)phenyl)amino)-4-(cyclopropylamino)imidazo[2,1-f][1,2,4]triazine-7-carbonitrile]
